Results reported in the NIST ThermoML archive (doi:10.1021/je400879v).
Numbers after ± are expanded uncertainties.

Test: molar heat capacity at constant pressure
Conditions: 101.33 kPa, Crystal

COC(=O)[C@H](Cc1ccccc1)NC(=O)[C@H](CC(C)C)NC(=O)[C@H](CCSC)NC=O [methyl formyl-L-methionyl-L-leucyl-L-phenylalaninate]
Conditions	molar heat capacity at constant pressure [J/K/mol]
142.02 K	328.1 ± 2.5
144.68 K	332.5 ± 2.5
147.35 K	336.5 ± 2.6
150 K	340.1 ± 2.6
150.01 K	340.6 ± 2.6
152.68 K	344.7 ± 2.6
155.33 K	348.5 ± 2.7
157.99 K	352.9 ± 2.7
160 K	355.6 ± 2.7
160.64 K	357.2 ± 2.7
163.28 K	361.6 ± 2.7
165.92 K	365.7 ± 2.8
168.56 K	368.7 ± 2.8
170 K	371.3 ± 2.8
171.19 K	373.7 ± 2.8
174.6 K	377.8 ± 2.9
176.09 K	381.5 ± 2.9
179.5 K	385.9 ± 2.9
180 K	387.3 ± 2.9
182.11 K	390.6 ± 2.9
184.71 K	394.8 ± 3
187.31 K	398.3 ± 3
189.9 K	402.2 ± 3
190 K	403.7 ± 3
192.49 K	407.4 ± 3.1
195.07 K	411.8 ± 3.1
197.64 K	416.1 ± 3.1
200 K	420.3 ± 3.1
200.2 K	420 ± 3.1
202.74 K	423.8 ± 3.2
205.27 K	428.2 ± 3.2
207.77 K	433.6 ± 3.2
210 K	437.2 ± 3.3
210.28 K	436.5 ± 3.3
212.77 K	442.5 ± 3.3
215.23 K	446.4 ± 3.3
217.6 K	450.8 ± 3.4
220 K	454.3 ± 3.4
220.02 K	455.6 ± 3.4
222.4 K	459.1 ± 3.4
224.71 K	463.1 ± 3.4
227.02 K	467.1 ± 3.5
229.33 K	471.1 ± 3.5
230 K	471.6 ± 3.5
231.66 K	475.2 ± 3.5
234 K	478.4 ± 3.5
236.36 K	484.2 ± 3.6
238.72 K	488 ± 3.6
240 K	489 ± 3.6
241.09 K	490.9 ± 3.6
243.46 K	493.2 ± 3.7
245.83 K	498.9 ± 3.7
248.18 K	503 ± 3.7
250 K	506.5 ± 3.7
250.5 K	507.1 ± 3.7
252.78 K	509.6 ± 3.8
254.83 K	514.5 ± 3.8
257.07 K	518.7 ± 3.8
259.3 K	523.3 ± 3.9
260 K	524.3 ± 3.9
261.5 K	528 ± 3.9
263.68 K	532.6 ± 3.9
265.84 K	535.2 ± 3.9
267.99 K	539.2 ± 4
270 K	542.4 ± 4
270.16 K	543.2 ± 4
272.34 K	547.3 ± 4
274.5 K	552.1 ± 4.1
276.67 K	554.9 ± 4.1
277.1 K	557.8 ± 4.1
279.97 K	561.2 ± 4.1
280 K	561.1 ± 4.1
282.11 K	564.9 ± 4.1
284.23 K	568.8 ± 4.2
286.34 K	571.5 ± 4.2
288.8 K	578 ± 4.2
290 K	580.7 ± 4.3
290.49 K	581 ± 4.3
292.53 K	584.6 ± 4.3
294.54 K	587.8 ± 4.3
296.39 K	591.6 ± 4.3
298.15 K	597.6 ± 4.4
298.4 K	596.2 ± 4.4
300 K	601.6 ± 4.4
300.24 K	601.4 ± 4.4
302.09 K	606.6 ± 4.4
304.77 K	614.7 ± 4.5
307.42 K	619.1 ± 4.5
309.83 K	624.8 ± 4.6
310 K	624.4 ± 4.6
312.19 K	631 ± 4.6
314.41 K	635 ± 4.6
316.68 K	638.7 ± 4.7
318.91 K	645.4 ± 4.7
320 K	649.7 ± 4.7
321.09 K	652.2 ± 4.8
323.22 K	661.1 ± 4.8
325.19 K	665.5 ± 4.8
327.12 K	669.6 ± 4.9
329.13 K	677.2 ± 4.9
330 K	678.4 ± 4.9
330.96 K	681.9 ± 5
332.75 K	688.8 ± 5
334.5 K	691.9 ± 5
335.18 K	695 ± 5
336.88 K	700.5 ± 5.1
338.54 K	704.4 ± 5.1
340 K	711.3 ± 5.2
340.17 K	710.6 ± 5.2
341.74 K	717 ± 5.2
343.27 K	723.9 ± 5.2
344 K	726 ± 5.3
